Earlier results on one compound are cited in patent US20060046961A1, “Controlled and directed local delivery of anti-inflammatory compositions” (priority 2004, published 2006).

Structures are written as SMILES.

The series concerns PGE2 production. As to conditions: cell culture.

Take `COc1ccc2cc(CC(=O)O)ccc2c1` [6-methoxy-2-napthylacetic acid]: the PGE2 production entry was “suppress” and the local inflammation entry is “suppress”.
